≈ marks a conversion by molar mass, not a printed value. Where “and” joins values, the source holds several entries; their conditions need not be identical. Equal values may be shown once. Read-outs that look alike come from different tables or passages of the source.
Legend:
[1] = test system: acute otitis media; assay: Single 30 mg/kg dose azithromycin pediatric acute otitis media trial (Study A0661015), all subjects
Excerpt: Craig, W. A., “Postantibiotic effects and the dosing of Macrolides, azalides, and streptogramins”, In: Zinner, S. H. et al. (editor) Expanding Indications for New Macrolides, Azalides, and Streptogramins, New York: Marel Dekker (1997), pp. 27–38.
(§1) Children six months to twelve years were enrolled if they had symptoms and signs of acute otitis media (“AOM”) for less than four weeks and middle ear effusion by acoustic reflectometry. Symptoms necessary for enrollment included ear pain or fullness, discharge from the external auditory canal, decreased hearing or fever. On physical examination they must have had one or more of the following: bulging or marked erythema of the tympanic membrane, loss of the normal light reflex or tympanic membrane landmarks, or impaired tympanic mobility on biphasic pneumatic otoscopy. The effusion was to be documented by acoustic reflectometry with an abnormal reading of 3 or higher.
(§2) Samples of middle ear fluid were obtained by tympanocentesis or, in the case of a perforated tympanic membrane, by swab. Middle ear fluid samples were obtained for culture at baseline. […] Children who vomited within thirty minutes of dosing were redosed.
(§3) A phone contact occurred on study day 5 to assess for adverse events followed by visits on days 10 and 24–28, at which time detailed clinical assessments were made and adverse events were recorded. Definitions included clinical cure (complete resolution of all signs and symptoms of AOM); improvement (partial resolution of signs and symptoms); or failure (no change or worsening of signs and symptoms, or requirement for additional antibiotic therapy for AOM). Any patient considered to have failed therapy was to have a repeat tympanocentesis.
(§4) The primary endpoint of the trial was the investigator designated cure rate at Day 24–28 for which a 95% confidence interval was computed using the normal approximation to the binomial distribution. Other endpoints analyzed included the clinical response rate by baseline pathogen at Day 24–28, the overall clinical response at Day 10, the percentage of subjects with individual signs and symptoms, as well as findings from pneumatic otoscopy and acoustic reflectometry. Only Streptococcus pneumoniae, Moraxella catarrhalis and Haemophilus influenzae were considered baseline pathogens for the purposes of these analyses.
This trial was an open-label, non-comparative study conducted at twenty-two sites from the United States, Costa Rica, Guatemala and Chile.
Not all strains are equally virulent and the growth rate and kinetics of infection may influence the outcome. In addition, H. influenzae has been a difficult organism to culture from the middle ear.

[2] = test system: H. influenzae; assay: Single dose azithromycin pediatric AOM trial, subjects with H. influenzae at baseline; format: in vivo, human
Excerpt: as §1, §2
Samples of middle ear fluid were split for storage at a central laboratory and cultured locally.
as §3
as §4, with “Only Streptococcus pneumoniae, Moraxella catarrhalis and Haemophilus influenzae were considered baseline pathogens for the purposes of these analyses.” left out

[3] = test system: Haemophilus influenzae 54A1100; assay: Murine acute infection (peritonitis) model challenged with Haemophilus influenzae; format: in vivo, mouse; conditions: for PD50: s.c.
[4] = test system: Streptococcus pneumoniae 02J1016; assay: Murine peritonitis model, Streptococcus pneumoniae; format: in vivo, mouse; conditions: oral QD
[5] = test system: Haemophilus influenzae 54A1218; assay: Gerbil middle ear (otitis media) infection model, ED50, H. influenzae 54A1218; format: in vivo; conditions: for ED50: past studies
[6] = test system: Haemophilus influenzae 54A1100; assay: Gerbil middle ear infection in vivo time kill, H. influenzae 54A1100
[7] = test system: H. influenzae 54A1100; assay: MIC determination, H. influenzae 54A1100; format: cell-based, Haemophilus influenzae; conditions: Haemophilus influenzae
Method: MIC Determinations. Streptococcus pneumoniae, S. pyogenes, E. faecalis, and H. influenzae MICs were determined using the broth microdilution procedure recommended by the NCCLS. Test trays were incubated at 35C without carbon dioxide. For testing of streptococci, the cation-adjusted Mueller-Hinton broth was supplemented with 2–3% lysed horse blood. For testing H. influenzae, freshly prepared Haemophilus Test Medium broth was used.
Bacterial Strains. • S. pneumoniae 02J1016, serotype 3, originally isolated from blood culture (strain P 4241) (MLS- and penicillin-susceptible). • S. pyogenes 02C0203, ATCC 12384, group A, type 3 (MLS-susceptible). • E. faecalis 03A1085, vancomycin susceptible clinically derived strain. • H. influenzae 54A1100, (43095 ATCC Fulghum strain) non-serotype B strain originally isolated from otitis media (macrolide and penicillin susceptible). • H. influenzae 54A1218, clinically derived non-serotype B strain (macrolide-susceptible, penicillin-resistant, TEM-1 beta-lactamase).

[8] = test system: S. pneumoniae; assay: Study 95-001 otitis media, S. pneumoniae as baseline pathogen; format: in vivo, human; conditions: five patients in azithromycin regimens with S. pneumoniae isolates with intermediate resistance
Method: (§5) Specimens for culture and susceptibility testing were obtained from the infected ear by tympanocentesis within 24 h of start of therapy. […] However, the study was evaluated using the breakpoints in the most recent set of guidelines.
(§6) To be a bacteriological cure, the MITT subject had to have a positive culture from the middle ear for S. pneumoniae, H influenzae, or M. catarrhalis. Eradication was defined as presumed eradication of pretreatment pathogen(s) based on signs/symptoms or unavailability of culturable material. All evaluable patients had only one of the bacterial species present at baseline. There was no bacteriological response data collected for 95–001. However, the clinical outcome by bacterial pathogen at follow-up (approximately 28 days after first visit) was collected. For patients with S. pneumoniae as the baseline pathogen, all treatment arms yielded 100% clinical cure when the investigators' evaluations that were missing are not included in the analysis. […] The comparator drug, ceftriaxone, had no failures out of 9 patients.

[9] = test system: H. influenzae; assay: Study 95-001 otitis media caused by H. influenzae; format: in vivo, human; conditions: 3-day regimen (10 mg/kg/day); 13 patients; follow-up
Method: as §5, §6

[10] = test system: M catarrhalis; assay: Study 95-001 otitis media, M. catarrhalis; format: in vivo, human; conditions: 3-day dosing regimen
Method: as §5, §6

[11] = test system: pneumococcal challenge; conditions: single dose compared with all the other dose regimens; cited from earlier work
[12] = oral QD, murine peritonitis model
[13] = oral QD, gerbil otitis media model

Q: Which results are given for `CC[C@H]1OC(=O)[C@H](C)[C@@H](O[C@H]2C[C@@](C)(OC)[C@@H](O)[C@H](C)O2)[C@H](C)[C@@H](O[C@@H]2O[C@H](C)C[C@H](N(C)C)[C@H]2O)[C@](C)(O)C[C@@H](C)CN(C)[C@H](C)[C@@H](O)[C@]1(C)O` [Azithromycin, 9a-aza-9a-methyl-9-deoxo-9a-homoerythromycin A]?
A: children with acoustic reflectometry scores improved from baseline ([1]; by day 24–28): 83%; children with completely normal acoustic reflectometry readings ([1]; by day 24–28): 53%; patients with complete resolution of baseline symptoms ([1]; by day 28): Ninety-two; patients with impaired tympanic membrane motility ([1]; day 10 (93% at baseline)): 27%; subjects with other objective signs of tympanic membrane disease ([1]; day 24–28): less than 10%; patients with impaired tympanic membrane motility ([1]; day 24–28 (93% at baseline)): 12%; adverse event diarrhea ([1]; single 30 mg/kg oral dose): 3%; adverse event vomiting ([1]; single 30 mg/kg oral dose): 6%; clinical failure (and presumed persistence) rate ([2]; MITT, thirty-nine evaluable H. influenzae strains): 33.3%; clinical cure rate overall with PCR-identified H. influenzae cures added ([2]; TOC, seventeen PCR-identified patients added): 76.8%; clinical outcome at test of cure of patients with H. influenzae identified by PCR only ([2]; seventeen additional patients): clinically cured; Oral PD50 ([3]; Dosing Regimen 1 day): 25.3 (14.3–36.2) mg/kg/day; Oral PD50 ([3]; Dosing Regimen 2 days): 49.9 (41.5–58.5) mg/kg/day; Oral PD50 ([3]; Dosing Regimen 3 days): 181.6 (180.1–183.1) mg/kg/day; Mice Surviving/Total ([3]; mouse, in vivo): 0/10 and 6/10 and 10/10 and 9/10 and 1/10 and 5/10; PD50 ([3]; one therapeutic dose (one day regimen)): 25.3 mg/kg; ED50 One-Day Therapy [3, 12]: 30.3^1 mg/kg/therapy; ED50 Three-Day Therapy [3, 12]: 147 mg/kg/therapy; ED50 Two-Day Therapy [3, 12]: 48 mg/kg/therapy; PD50 ([3]; previously tested, standard dosing paradigm (b.i.d. on day 1)): 27 mg/kg; ED50 One-Day Therapy [4]: 8.7^1 mg/kg/therapy; ED50 Three-Day Therapy [4]: 15.1 mg/kg/therapy; ED50 Two-Day Therapy [4]: 7.6 mg/kg/therapy; ED50 One-Day Therapy [5, 13]: 84 mg/kg/therapy; ED50 Three-Day Therapy [5, 13]: 65 mg/kg/therapy; ED50 Two-Day Therapy [5, 13]: 53 mg/kg/therapy; ED50 ([5]; Q.D. 1): 83.8 (53.6–114.1) mg/kg/total regimen; ED50 ([5]; Q.D. 2): 53.4 (21.2–85.5) mg/kg/total regimen; ED50 ([5]; Q.D. 3): 65.2 (51–79.4) mg/kg/total regimen; Recoverable CFU (Bulla) [Log10.Geo.Mean] (SEM) ([6]; 66.6 mg/kg/day oral Q.D. [3 days], 48 hours post-infection): 5.8817 (0.44) log of cfu-bulla wash/ml and 5.8817 log of cfu-bulla wash/ml; Recoverable CFU (Bulla) [Log10.Geo.Mean] (SEM) ([6]; 66.6 mg/kg/day oral Q.D. [3 days], 72 hours post-infection): 4.5981 (0.14) log of cfu-bulla wash/ml and 4.5981 log of cfu-bulla wash/ml; Recoverable CFU (Bulla) [Log10.Geo.Mean] (SEM) ([6]; 66.6 mg/kg/day oral Q.D. [3 days], 96 hours post-infection): 6.1520 (0.75) log of cfu-bulla wash/ml and 6.1520 log of cfu-bulla wash/ml; Recoverable CFU (Bulla) [Log10.Geo.Mean] (SEM) ([6]; 100 mg/kg/day oral Q.D. [2 days], 48 hours post-infection): 5.7572 (0.54) log of cfu-bulla wash/ml and 5.7572 log of cfu-bulla wash/ml; Recoverable CFU (Bulla) [Log10.Geo.Mean] (SEM) ([6]; 100 mg/kg/day oral Q.D. [2 days], 72 hours post-infection): <2.4580 (0.46) log of cfu-bulla wash/ml and <2.4580 log of cfu-bulla wash/ml; Recoverable CFU (Bulla) [Log10.Geo.Mean] (SEM) ([6]; 100 mg/kg/day oral Q.D. [2 days], 96 hours post-infection): <3.1112 (1.11) log of cfu-bulla wash/ml and <3.1112 log of cfu-bulla wash/ml; Recoverable CFU (Bulla) [Log10.Geo.Mean] (SEM) ([6]; 200 mg/kg/day oral Q.D. [1 day], 48 hours post-infection): <2.0000 log of cfu-bulla wash/ml; Recoverable CFU (Bulla) [Log10.Geo.Mean] (SEM) ([6]; 200 mg/kg/day oral Q.D. [1 day], 72 hours post-infection): <2.0000 log of cfu-bulla wash/ml; Recoverable CFU (Bulla) [Log10.Geo.Mean] (SEM) ([6]; 200 mg/kg/day oral Q.D. [1 day], 96 hours post-infection): <2.0000 log of cfu-bulla wash/ml; eradication, test subjects ([6]; Q.D. 2 (100 mg/kg on day 1 and 2), at 72 and at 96 hours post-infection): 4/5; eradication in any test subject ([6]; Q.D. 3 (66.6 mg/kg on day 1, 2 and 3), 72 and 96 hours post-infection): not observed; MIC ([7]; 54A1100, H. influenzae 54A1100): 1.56 µg/mL (≈ 2.08 µM); MIC ([7]; H. influenzae 54A1100, read-out: MIC): 0.5 to 1 µg/mL (≈ 0.668 to 1.34 µM); clinical outcomes at EOT or follow-up [8]: either “cure” or “improvement”; failures [9]: 2; outcome at follow-up of the two M catarrhalis isolates [10]: presumed bacteriological cures; survival versus a pneumococcal challenge [11]: significantly increased survival

From patent US6987093B2 (priority 2001, dated 2006)
